Measured values as given in patent US20120083473A1, “TREATMENT OF CONDITIONS BY TOLL-LIKE RECEPTOR MODULATORS” (priority 2010, published 2012).

Experiments:
human monocytes (Mo) = experiment: M1/M2 gene expression in human monocytes (Real-Time PCR); format: cell-based
Experimental: To evaluate the effects of TMX on human cell activation, monocytes were isolated from buffy coats obtained from four different healthy donors. With respect to macrophage tolerance, cells were treated with Compound 2 (10 microM) up to 20 hours and then re-challenged with agonists/ligands of different TLRs (TLR2, TLR4, TLR5, TLR9, TLR7, etc. . . . ), including the TLR7 unconjugated ligand 1V209 (free pharmacophore) at a concentration of 10 microM.
Cell Culture and treatments. Monocytes (Mo) were obtained from buffycoats collected from healthy donors as previously described (Porta C et al, PNAS 2009). Cells were incubated in RPMI 1640 medium, containing 10% fetal bovine serum, 2 mM glutamine and 100 U/ml of penicillin-streptomycin. The concentrations for the different treatments were as follows: LPS (100 ng/ml) (Lipopolysaccharide from Salmonella Abortus Equi S-form, Alexis), CpG (1 microg/ml), Pam3CSK (2 microg/ml), Poly I:C (10 microg/ml), Loxorubine (100 microM), flagellin (100 ng/ml). To induce TMX tolerance, cells were incubated in the presence of TMX (10 microM) for 20 hrs, washed and maintained in RPMI medium for 2 hrs and then re-challenged with TMX (10 microM) for 4 hrs. To induce TMX-tolerization (T/M) cells were treated with TMX for 20 hrs, washed and then maintained in medium for additional 6 hours, without TMX re-challenge. To induce M1-activation cells were incubated in medium for 20 hrs, washed, left in medium for 2 hrs and finally stimulated with TMX (10 microM) for 4 hrs. Control cells (M/M) were cultured in medium for the entire period of the experiment. For gene expression analysis, total RNA was extracted from TMX treated and untreated cells with trizol (Invitrogen), according to the manufacturer's instructions. To analyze cytokines and chemokines production supernatants were collected 24 hrs after the second challenge with TMX.
Real-Time PCR. Total RNA was purified as previously described. Briefly, reverse transcription from 1 microgram of RNA was performed using a cDNA Archive kit (Applied Biosystem, NJ, USA). Real time PCR was performed using Power Syber Green PCR Master Mix (Applied Biosystem, NJ, USA) and detected by 7900HT Fast Real-Time System (Applied Biosystem, NJ, USA). Data were processed using the SDS2.2.2 software (Applied Biosystem, NJ, USA). Results were normalized to the expression of the housekeeping gene 8-actin and then expressed as folds of upregulation, with respect to the control cell population.

NF-κB and STATs = NF-κB and STATs activity in TMX-tolerant macrophages (Western blot); format: cell-based, mice
Experimental: To investigate NF-κB and STATs activity upon TMX-mediated activation and tolerance, p65 and p50 NE-KB nuclear translocation and the levels of phospho-STATs proteins, respectively was analyzed. PEC treated 15 min with IFN-γ (500 U/mL) or with IL-10 (20 ng/ml) were used as positive controls for phospho-STAT1 and phospho-STAT3, respectively. In tolerance TMX 10 microM induces nuclear accumulation of p50 NF-kappaB and phosphorylation of STAT-3 (FIG. 6).
Cell Culture and treatments. Peritoneal exudate cells (PEC) were harvested from mice injected with 1 ml of 3% (w/v) thioglycollate medium (Difco, Detroit, Mich.) 4 days prior to isolation. PECs were incubated in RPMI 1640 medium, containing 10% fetal bovine serum, 2 mM glutamine and 100 U/ml of penicillin-streptomycin. The concentration for the different treatments were as follows: LPS (100 ng/ml) (Lipopolysaccharide from Salmonella Abortus Equi S-form, Alexis), CpG (1 μg/ml), Pam3CSK (2 μg/ml), Poly I:C (10 μg/ml), Loxorubine (100 μM), flagellin (100 ng/ml) IL-1β (20 ng/ml), TNF (20 ng/ml), IL-10 (20 ng/ml) (Peprotech), IFNγ (200 U/ml) (Peprotech). To induce TMX tolerance, cells were incubated in the presence of TMX (10 μM or 1 μM) for 20 hrs, washed and maintained in RPMI medium for 2 hrs and then re-challenged with TMX (10 μM) for 4 hrs. To induce TMX-tolerization (T/M) cells were treated with TMX for 20 hrs, washed and then maintained in medium for additional 6 hours, without TMX re-challenge. To induce M1-activation, cells were incubated in medium for 20 hrs, washed, left in medium for 2 hrs and finally stimulated with TMX (10 μM) for 4 hrs. Control cells (M/M) were cultured in medium for the entire period of the experiment. For gene expression analysis, total RNA was extracted from TMX treated and untreated cells with trizol (Invitrogen), according to the manufacturer's instructions. […]
Western blot analysis. For the NF-κB proteins, nuclear and cytosolic extracts were analyzed by SDS/PAGE (10% acrylamide) as described. […] Then, optical density was determined by “Quantity One” software.

Stability of the API = format: physicochemical; conditions: for stability of powder: preliminary
Experimental: Compound 2 powder underwent preliminary stability testing at 25° C. for 6 months and 40° C. for three months. […] Aqueous solutions of Compound 2 (2 mg/ml) are stable up to 4 weeks at 37° C.

In the case of `COCCOc1nc(N)c2nc(O)n(Cc3ccc(C(=O)NCCOCCOCCOCCOCCOCCOCCn4cc(CCC(=O)O)nn4)cc3)c2n1` [Compound 2], the “IL-10 expression in tolerant Mo as compared to activated Mo” value (human monocytes (Mo)) is reported as “inhibited”, the “M1 markers CXCL9, IFNbeta, iNOS and M2 cytokine TGFbeta” value (human monocytes (Mo)) is reported as “No significant modulation” and the “tolerizing and polarizing activity on human cells as compared to murine cells” value (human monocytes (Mo)) is reported as “partial tolerizing and polarizing activity”. For the same compound, the “M1 (TNF-alpha, IL-1-beta IL-6, IL-12, CXCL10) gene expression in state of tolerance” value (human monocytes (Mo); 10 microM, 20 hours, Mo from 3 out of 4 healthy donors) was “low”, the “M1 markers TNF-alpha, IL12-p40 IL-1 IL6 CXCL10 and IFNbeta” value (human monocytes (Mo); TMX pretreatment) was “down-regulated” and the “M2 genes CCL17, CCL18, CCL22 in tolerant versus activated Mo” value (human monocytes (Mo); few exceptions (CCL18, CCL22 in single donors)) was “further induced”. For the same compound, the “M2 signature chemokines CCL17, CCL18 and CCL22” value (human monocytes (Mo); presence of TMX compound) was “increased”, the “activation of STAT-6” value (NF-κB and STATs; any condition) was “No detectable activation” and the “nuclear accumulation of p50 NF-kappaB” value (NF-κB and STATs; in tolerance, TMX 10 microM) was “induces”. The “phosphorylation of STAT-3” value (NF-κB and STATs; in tolerance, TMX 10 microM) was “induces”, the stability of powder (Stability of the API; 25° C. for 6 months) was “no degradation or impurity profile changes” and the stability of powder (Stability of the API; 40° C. for three months) was “no degradation or impurity profile changes”. For the same compound, the “time aqueous solutions are stable” value (Stability of the API; aqueous solutions 2 mg/ml, 37° C.) was “up to 4 weeks”.
